Assay results published in publication PMC12475274, “Harnessing indole scaffolds to identify small-molecule IRE1α inhibitors modulating XBP1 mRNA splicing” (Nature Communications, 2025).
“And” between values parts separate entries of the source, which are not always exact repeats. Identical values can stand only once. Like-named read-outs stand apart in the source and are kept apart here.

Legend:
IRE1α (ERN1) = IRE1α (ERN1) (Homo sapiens, UniProt O75460); test: LanthaScreen Eu kinase binding assay, IRE1α
Procedure: LanthaScreen^TM Eu kinase binding assays were conducted by SelectScreen Kinase Profiling Services (Thermo Fisher) using Alexa Fluor conjugated kinase tracer, tagged kinase protein, and Eu-labeled anti-tag antibody. The binding of the tracer to the kinase will form the tracer-kinase complex, resulting in a high FRET signal with the Eu-labeled anti-tag antibody. Displacement of the tracer by a kinase inhibitor led to a decreased FRET signal. […] Buffer A containing 50 mM HEPES pH 7.5, 0.01% BRIJ-35, 10 mM MgCl2, and 1 mM EGTA was used.
Kinase profiling was conducted by the SelectScreen Kinase Profiling Services (Thermo Fisher), using Z′-LYTE, Adapta, or LanthaScreen Eu Kinase Binding Assay for different kinases. The kinome phylogenetic tree was generated using the KinMap web portal.

[1] = molecular target: T1, phosphorylated IRE1α (p-IRE1α) (Homo sapiens, UniProt O75460); test: FRET-based IRE1α RNase activity assay, phosphorylated IRE1α; format: biochemical
T1 construct: Human IRE1α kinase and RNase domain (residues 547–977) was subcloned into pLIB plasmid; His tag (with TEV cleavage site) (N, cleaved yes); made in house; host or cells: Sf9 insect cells, baculovirus (Bac-to-Bac)
Procedure, shortened: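 Cleavage of a dual-labeled XBP1 RNA (200 nM) was followed kinetically over 1 h at room temperature at 485/535 nm, with initial slopes giving percent inhibition and IC50. Enzyme was 4 nM phosphorylated human IRE1α 547–977 from insect cells, incubated with compound for 30 min before substrate; buffer 20 mM HEPES pH 7.5, KOAc, MgOAc2, DTT, Triton X-100.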

[2] = molecular target: T2, dephosphorylated IRE1α (547–977) (Homo sapiens, UniProt O75460); test: FRET-based IRE1α RNase activity assay, dephosphorylated IRE1α; format: biochemical
T2 construct: Human IRE1α kinase and RNase domain (residues 547–977) was subcloned into pLIB plasmid; His tag (with TEV cleavage site) (N, cleaved yes); made in house; host or cells: Sf9 insect cells, baculovirus (Bac-to-Bac)
Procedure, shortened: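 Inhibition came from the linear-phase cleavage rate of 100 nM XBP1-sequence FAM/BHQ1 RNA, monitored at 485/535 nm over one hour and fitted to IC50. Enzyme: 40 nM unphosphorylated IRE1α kinase-RNase domain (547–977), exposed to compound for 30 min at room temperature before substrate, in HEPES pH 7.5 buffer.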

MDA-MB-468 cells = test: Cell viability assay (CCK-8), MDA-MB-468; format: cell-based, human; parameters: key to MDMB-468 viability: % viability vs DMSO-treated cells, blank-corrected A450; conditions: in % (unit assumed)
Procedure: (§1) Cells were collected and seeded into 96-well plates at a density of 2000–4000 cells per well and cultured overnight to allow cells to adhere. After adherence, cells were treated with the indicated compounds for 72 h. Then 20 μL CCK-8 solution (Vazyme, A311) was added into each well and incubated at 37 °C for 2–4 h. Absorbance was detected at a wavelength of 450 nm using a TECAN plate reader. Cell viability was calculated with the equation: Cell viability (%) = 100(Absorbance of treated cell - Absorbance of Blank control)/ (Absorbance of DMSO-treated cells - Absorbance of Blank control); Blank control: medium and CCK-8 solution, no cells.

HCT 116 cells = test: Cell viability assay (CCK-8), HCT 116; format: cell-based, human; parameters: key to HCT 116 viability: % viability vs DMSO-treated cells, blank-corrected A450; conditions: in % (unit assumed)
Procedure: as §1

A549 cells = test: Cell viability assay (CCK-8), A549; format: cell-based, human; parameters: key to A549 viability: % viability vs DMSO-treated cells, blank-corrected A450; conditions: in % (unit assumed)
Procedure: as §1

HT-29 cells = test: Cell viability assay (CCK-8), HT-29; format: cell-based, human; parameters: key to HT-29 viability: % viability vs DMSO-treated cells, blank-corrected A450; conditions: in % (unit assumed)
Procedure: as §1

[3] = Conc. 50000 nM, duplicates, read-out: IRE1a Kinase Displacement(%)

T2 sequence (O75460 547-977): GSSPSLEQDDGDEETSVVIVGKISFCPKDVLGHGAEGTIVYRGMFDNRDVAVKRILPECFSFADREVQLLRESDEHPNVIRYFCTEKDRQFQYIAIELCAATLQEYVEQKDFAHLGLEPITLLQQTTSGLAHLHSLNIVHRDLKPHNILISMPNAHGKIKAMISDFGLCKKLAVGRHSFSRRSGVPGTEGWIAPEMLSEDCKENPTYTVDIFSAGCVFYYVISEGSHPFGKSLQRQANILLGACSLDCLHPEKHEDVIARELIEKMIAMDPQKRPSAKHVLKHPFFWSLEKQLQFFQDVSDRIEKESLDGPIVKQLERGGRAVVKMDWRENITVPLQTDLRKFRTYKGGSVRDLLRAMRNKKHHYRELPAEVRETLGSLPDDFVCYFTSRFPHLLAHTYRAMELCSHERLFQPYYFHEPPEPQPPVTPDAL
T1 sequence (O75460 547-977): as above
Chain of IRE1α (ERN1) (O75460 19-977): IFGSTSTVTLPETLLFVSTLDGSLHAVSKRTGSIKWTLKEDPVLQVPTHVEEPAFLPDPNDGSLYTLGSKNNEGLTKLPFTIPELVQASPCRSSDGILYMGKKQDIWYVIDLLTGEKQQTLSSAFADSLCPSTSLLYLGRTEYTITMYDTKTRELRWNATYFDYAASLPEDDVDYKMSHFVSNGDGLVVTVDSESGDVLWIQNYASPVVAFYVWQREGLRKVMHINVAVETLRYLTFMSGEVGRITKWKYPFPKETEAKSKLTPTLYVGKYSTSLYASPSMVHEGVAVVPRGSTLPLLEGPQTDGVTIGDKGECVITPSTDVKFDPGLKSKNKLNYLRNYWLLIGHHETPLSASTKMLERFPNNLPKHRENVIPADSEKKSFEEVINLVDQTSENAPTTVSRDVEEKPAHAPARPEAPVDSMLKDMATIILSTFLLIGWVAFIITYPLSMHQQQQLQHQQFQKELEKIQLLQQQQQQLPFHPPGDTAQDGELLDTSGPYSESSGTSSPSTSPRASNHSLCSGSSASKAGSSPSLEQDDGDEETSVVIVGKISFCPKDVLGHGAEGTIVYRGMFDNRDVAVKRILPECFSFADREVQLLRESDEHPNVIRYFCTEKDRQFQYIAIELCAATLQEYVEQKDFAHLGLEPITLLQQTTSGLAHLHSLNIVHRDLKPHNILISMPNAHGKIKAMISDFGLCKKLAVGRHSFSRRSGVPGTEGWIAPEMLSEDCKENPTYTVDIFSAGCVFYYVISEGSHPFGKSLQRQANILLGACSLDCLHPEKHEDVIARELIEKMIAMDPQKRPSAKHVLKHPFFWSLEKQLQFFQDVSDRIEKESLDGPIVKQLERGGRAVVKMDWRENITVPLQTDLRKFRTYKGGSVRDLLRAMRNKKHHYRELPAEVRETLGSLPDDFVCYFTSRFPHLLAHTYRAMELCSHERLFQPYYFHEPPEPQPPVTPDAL

SMILES | inhibition at 50 µM (IRE1α (ERN1); [3]) | MDMB-468 viability (MDA-MB-468 cells; 0.205761 μM) | MDMB-468 viability (MDA-MB-468 cells; 0.617284 μM) | MDMB-468 viability (MDA-MB-468 cells; 1.85185 μM) | MDMB-468 viability (MDA-MB-468 cells; 5.55556 μM) | MDMB-468 viability (MDA-MB-468 cells; 16.6667 μM) | MDMB-468 viability (MDA-MB-468 cells; 50 μM) | HCT 116 viability (HCT 116 cells; 0.205761 μM) | HCT 116 viability (HCT 116 cells; 0.617284 μM) | HCT 116 viability (HCT 116 cells; 1.85185 μM) | HCT 116 viability (HCT 116 cells; 5.55556 μM) | HCT 116 viability (HCT 116 cells; 16.6667 μM) | HCT 116 viability (HCT 116 cells; 50 μM) | A549 viability (A549 cells; 0.205761 μM) | A549 viability (A549 cells; 0.617284 μM) | A549 viability (A549 cells; 1.85185 μM) | A549 viability (A549 cells; 5.55556 μM) | A549 viability (A549 cells; 16.6667 μM) | A549 viability (A549 cells; 50 μM) | HT-29 viability (HT-29 cells; 0.205761 μM) | other results
COc1ccc2c(c1)c(CCC(=O)O)c(C)n2C(=O)c1ccc(S(=O)(=O)F)cc1 [IA06] | 17% |  |  |  |  |  |  |  |  |  |  |  |  |  |  |  |  |  |  |  | inhibition at 50 µM (IRE1α (ERN1); 50 μM, read-out: kinase inhibition at highest tested concentration): 23%; IC50 ([1]; p-IRE1a IC50, individual replicates (n1-n4), FRET assay, source data, unit from Fig. 3): 11.1 µM and 6.78 µM and 5.45 µM; IC50 ([1]; p-IRE1α IC50, FRET assay, RNase activity, mean (± SEM)): 7.79 µM; IC50 ([2]; IRE1a IC50, individual replicates (n1-n4), FRET assay, source data, unit from Fig. 3 / sheet Fig. 2b): 9.65 µM and 7.76 µM and 4.55 µM; IC50 ([2]; IRE1α IC50, FRET assay, RNase activity, mean (± SEM)): 7.32 µM
COc1ccc2c(c1)c(CCC(=O)O)c(C)n2C(=O)c1cc2ccccc2s1 [IA10] | 58% |  |  |  |  |  |  |  |  |  |  |  |  |  |  |  |  |  |  |  | inhibition at 5.56 µM (IRE1α (ERN1); Conc. 5560 nM, duplicates, read-out: IRE1a Kinase Displacement(%)): 35%; inhibition at 16.7 µM (IRE1α (ERN1); Conc. 16700 nM, duplicates, read-out: IRE1a Kinase Displacement(%)): 63%; IC50 (IRE1α (ERN1); IRE1α kinase domain, read-out: IC50 (kinase binding), LanthaScreen Eu kinase binding): 9.61 µM; IC50 ([1]; FRET assay, read-out: p-IRE1α IC50 (RNase activity)): 1.97 µM; IC50 ([1]; FRET assay, source data, unit from Fig. 3, read-out: p-IRE1a IC50, individual replicates (n1-n4)): 3.01 µM and 1.92 µM and 0.985 µM; IC50 ([2]; FRET assay, dephosphorylated IRE1α, read-out: IRE1α IC50 (RNase activity)): 1.81 µM; IC50 ([2]; FRET assay, source data, unit from Fig. 3 / sheet Fig. 2b, read-out: IRE1a IC50, individual replicates (n1-n4)): 0.727 µM and 2.78 µM and 2.47 µM and 1.25 µM
Cc1c(CCC(=O)O)c2cc(Br)ccc2n1C(=O)c1ccccc1 [Compound 107] |  | 101.311 and 95.140 and 93.231 | 100.675 and 92.658 and 100.039 | 97.239 and 104.174 and 86.869 | 97.876 and 87.887 and 96.349 | 85.214 and 82.224 and 83.624 | 81.333 and 82.288 and 84.260 | 102.833 and 101.904 and 103.547 | 105.053 and 111.700 and 97.075 | 98.142 and 107.837 and 106.069 | 107.561 and 110.157 and 105.065 | 99.383 and 99.772 and 101.528 | 89.136 and 87.455 and 94.529 | 99.758 and 114.080 and 100.963 | 103.947 and 108.835 and 105.037 | 103.339 and 113.208 and 107.080 | 100.390 and 102.432 and 108.606 | 111.429 and 90.004 and 98.703 | 105.990 and 95.489 and 98.817 | 107.531 and 106.250 | HT-29 viability (HT-29 cells; 0.617284 μM): 105.681 and 105.762; HT-29 viability (HT-29 cells; 1.85185 μM): 112.450 and 111.942; HT-29 viability (HT-29 cells; 5.55556 μM): 121.172 and 105.478; HT-29 viability (HT-29 cells; 16.6667 μM): 115.825 and 113.345; HT-29 viability (HT-29 cells; 50 μM): 110.661 and 115.500
CCOC(=O)CCc1c(C)n(C(=O)c2ccccc2)c2ccc(Br)cc12 [Compound 105] |  | 105.638 and 111.110 and 96.794 | 104.047 and 105.002 and 96.794 | 99.021 and 100.357 and 92.786 | 101.502 and 93.231 and 90.241 | 91.131 and 95.903 and 102.075 | 78.343 and 88.459 and 92.404 | 105.479 and 107.511 and 97.213 | 103.773 and 98.693 and 112.553 | 103.848 and 104.852 and 99.659 | 103.874 and 100.174 and 105.429 | 102.870 and 107.248 and 108.126 | 80.557 and 78.801 and 90.315 | 96.121 and 99.380 and 106.104 | 98.783 and 101.411 and 97.532 | 93.780 and 103.281 and 111.131 | 105.404 and 106.621 and 106.322 | 96.476 and 98.393 and 111.165 | 100.539 and 103.017 and 106.219 | 113.182 and 110.499 and 118.448 | HT-29 viability (HT-29 cells; 0.617284 μM): 123.469 and 111.597 and 102.062; HT-29 viability (HT-29 cells; 1.85185 μM): 133.369 and 110.621 and 100.802; HT-29 viability (HT-29 cells; 5.55556 μM): 113.223 and 102.896 and 116.984; HT-29 viability (HT-29 cells; 16.6667 μM): 110.519 and 102.367 and 115.540; HT-29 viability (HT-29 cells; 50 μM): 128.693 and 87.059 and 105.213
